According to ChEMBL document CHEMBL4706603, “Discovery of VEGFR-2 inhibitors exerting significant anticancer activity against CD44+ and CD133+ cancer stem cells (CSCs): Reversal of TGF-β induced epithelial-mesenchymal transition (EMT) in hepatocellular carcinoma” (Eur J Med Chem, 2020):

Key:
[1] = Toxicity in female Wistar rat assessed as roughened fur at 2000 mg/kg, po observed for 48 hrs; format: organism-based; conditions: in vivo
[2] = tested on: MDA-MB-231; assay: Induction of apoptosis in human MDA-MB-231 cells assessed as late apoptotic cells at IC50 incubated for 72 hrs by Alexa Fluor488-annexin V/PI staining based flow cytometric analysis (Rvb= 0.0 %); format: functional
[3] = Inhibition of VEGF expression in human HUVEC at IC50 incubated for 48 hrs by FITC based flow cytometry analysis relative to control; format: functional

Q: For `CC(=O)Nc1ccc(Oc2cccc3c(NC(=O)Nc4cccc(C(F)(F)F)c4)cccc23)cc1`, which Activity [1] is on record?
A: Toxic

Q: And the Activity [2]?
A: 4.3%

Q: What about the “fold change (FC)” value [3] of the same compound?
A: 0.39
